Assay results taken from ChEMBL document CHEMBL1914306, “The design, synthesis and biological evaluation of novel URB602 analogues as potential monoacylglycerol lipase inhibitors” (Bioorg Med Chem Lett, 2011).

What was measured:
[1] = biological target: T1, Monoglyceride lipase (Homo sapiens) (UniProt Q99685); assay: Inhibition of human recombinant MAGL assessed as remaining activity at 1 uM after 10 mins by spectrophotometry relative to control
T1 sequence (whole entry): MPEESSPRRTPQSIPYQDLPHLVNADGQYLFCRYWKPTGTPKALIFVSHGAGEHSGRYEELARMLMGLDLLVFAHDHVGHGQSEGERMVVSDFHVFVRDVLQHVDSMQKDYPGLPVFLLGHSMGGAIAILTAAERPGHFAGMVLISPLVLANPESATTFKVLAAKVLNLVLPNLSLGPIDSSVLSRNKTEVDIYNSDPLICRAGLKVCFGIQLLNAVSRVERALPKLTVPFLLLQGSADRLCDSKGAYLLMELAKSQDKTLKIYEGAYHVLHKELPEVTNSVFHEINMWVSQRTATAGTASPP

[2] = biological target: T1, Monoglyceride lipase (Homo sapiens); assay: Inhibition of human recombinant MAGL assessed as remaining activity at 10 uM after 10 mins by spectrophotometry relative to control
[3] = biological target: T1, Monoglyceride lipase (Homo sapiens); assay: Inhibition of human recombinant MAGL assessed as remaining activity at 100 uM after 10 mins by spectrophotometry relative to control
[4] = biological target: T1, Monoglyceride lipase (Homo sapiens); assay: Inhibition of MAGL assessed as remaining activity using 4-nitrophenylacetate as substrate at 10 uM relative to control

SMILES	Activity [1] [%]	Activity [2] [%]	Activity [3] [%]	Activity [4] [%]
O=C(Nc1cccc(-c2ccccc2)c1)NC1CCCCCC1	96	80	55	–
CC(C)[C@@H]1CC[C@@H](C)C[C@H]1OC(=O)Nc1cccc(-c2ccccc2)c1	106	101	–	–
O=C(Nc1cccc(-c2ccccc2)c1)NC1CCCC1	80	73	–	–
S=C(Nc1cccc(-c2ccccc2)c1)NC1CCCCC1	93	76	–	–
O=C(Nc1cccc(-c2ccccc2)c1)O[C@H]1C[C@H]2CC[C@@H]1C2	95	79	–	–
O=C(Nc1cccc(-c2ccccc2)c1)NC1CCCCC1	98	79	78	–

More lines, now with the values ahead:

Activity [1] [%]	Activity [2] [%]	Activity [3] [%]	Activity [4] [%]	SMILES
93	71	–	–	O=C(Nc1cccc(-c2ccccc2)c1)OC1CCCC1
85	81	81	–	O=C(Nc1cccc(-c2ccc(Cl)cc2)c1)OC1CCCCC1
94	71	–	–	O=C(Nc1cccc(-c2ccccc2)c1)OC1CCCCCC1
93	71	73	84	O=C(Nc1cccc(-c2ccccc2)c1)OC1CCCCC1
73	83	–	–	S=C(Nc1cccc(-c2ccccc2)c1)OC1CCCCC1
79	83	–	–	S=C(Nc1cccc(-c2ccccc2)c1)OC1CCCCCC1
97	86	85	–	O=C(Nc1cccc(-c2ccccc2)c1)OC1CCC1
83	46	26	–	O=C(Nc1cccc(-c2ccc(O)cc2)c1)OC1CCCCC1
101	92	–	–	O=C(Nc1cccc(-c2ccccc2)c1)OC1CCCCCCC1
